The values below are quoted from earlier work in patent US20060063742A1, “Method of treatment for or protection against lymphedema” (priority 2004, published 2006).

The structures appear in SMILES notation.

One data set relates to mice. The following applies: intravenously, doses higher than 3750 mg/kg.
Another data set deals with dogs. The following applies: intravenously, doses higher than 3750 mg/kg.
The next data set concerns humans. The following applies: doses exceeding 40 g/m^2.

`O=S(=O)([O-])CCSSCCS(=O)(=O)[O-].[Na+].[Na+]` [Dimesna, disodium 2,2′-dithiobis ethane sulfonate]: the adverse effects result in the data set with mice, with dogs and in the data set with humans was “no adverse effects” each time.
Regarding `[Cl-].[Na+]` [common table salt], the “accepted oral LD50” value is 3750 mg/kg.
